Results published in ChEMBL document CHEMBL1821555, “Identification of a series of 4-[3-(quinolin-2-yl)-1,2,4-oxadiazol-5-yl]piperazinyl ureas as potent smoothened antagonist hedgehog pathway inhibitors” (Bioorg Med Chem Lett, 2011).

How the values were obtained:
Cytochrome P450 2D6 = Cytochrome P450 2D6 (Homo sapiens, UniProt P10635); assay: Inhibition of CYP2D6; assay type: ADME
Cytochrome P450 2C9 = Cytochrome P450 2C9 (Homo sapiens, UniProt P11712); assay: Inhibition of CYP2C9; assay type: ADME
[1] = biological target: Potassium voltage-gated channel subfamily H member 2 (hERG), Homo sapiens; assay: Inhibition of human ERG
[2] = Lipophilicity, log D of the compound; assay type: physicochemical; details: octanol/water
Shh Light II [3] = assay: Inhibition of Shh signaling in mouse Shh-light2 cells by Gli-dependent firefly luciferase reporter gene assay; assay type: functional, cell-based
Protein smoothened [4] = biological target: T1, Protein smoothened (Homo sapiens, UniProt Q99835); assay: Displacement of Bodipy-labelled cyclopamine from Smo expressed in COS-1 cells in presence of 2% FBS after 4 to 6 hrs by FACS flow cytometric analysis; assay type: cell-based
Protein smoothened [5] = biological target: T1, Protein smoothened; assay: Inhibition of Bodipy-labelled cyclopamine binding to Smo expressed in COS-1 cells in presence of 20% NHS after 4 to 6 hrs by FACS flow cytometric analysis; assay type: cell-based
Cytochrome P450 3A4 = Cytochrome P450 3A4 (Homo sapiens, UniProt P08684); assay: Inhibition of CYP3A4; assay type: ADME
[6] = Clearance in rat; assay type: ADME, organism-based; details: in vivo
[7] = Half life in dog; assay type: ADME, organism-based, Canis lupus familiaris; details: in vivo
[8] = Intrinsic clearance in human liver microsomes assessed per mg of protein; assay type: ADME, Microsome
[9] = Clearance in dog; assay type: ADME, organism-based, Canis lupus familiaris; details: in vivo
[10] = Induction of cytochrome P450 at 30 uM; assay type: ADME
[11] = Inhibition of cytochrome P450 at 30 uM; assay type: ADME
[12] = Terminal half life in rat; assay type: ADME, organism-based; details: in vivo, read-out: beta t1/2 (converted)
[13] = Intrinsic clearance in rat liver microsomes assessed per mg of protein; assay type: ADME, Microsome
Protein smoothened [14] = biological target: T1, Protein smoothened; assay: Inhibition of Bodipy-labelled cyclopamine binding to Smo expressed in COS-1 cells at 2.5 uM in presence of 2% FBS after 4 to 6 hrs by FACS flow cytometric analysis; assay type: cell-based
Shh Light II [15] = assay: Inhibition of Shh signaling in mouse Shh-light2 cells at 10 uM by Gli-dependent firefly luciferase reporter gene assay; assay type: functional
Protein smoothened [16] = biological target: T1, Protein smoothened; assay: Inhibition of Bodipy-labelled cyclopamine binding to Smo expressed in COS-1 cells at 10 uM in presence of 2% FBS after 4 to 6 hrs by FACS flow cytometric analysis; assay type: cell-based
[17] = Oral bioavailability in rat; assay type: ADME, organism-based; details: in vivo
[18] = Intrinsic clearance in dog liver microsomes assessed per mg of protein; assay type: ADME, Canis lupus familiaris, Microsome
Protein smoothened [19] = biological target: T1, Protein smoothened; assay: Inhibition of Bodipy-labelled cyclopamine binding to Smo expressed in COS-1 cells at 2 uM in presence of 2% FBS after 4 to 6 hrs by FACS flow cytometric analysis; assay type: cell-based
CYP2C9 = CYP2C9 (Homo sapiens, UniProt P11712); assay: Inhibition of CYP2C9 at 10 uM; assay type: ADME
CYP3A4 = CYP3A4 (Homo sapiens, UniProt P08684); assay: Inhibition of CYP3A4 at 10 uM; assay type: ADME
Shh Light II [20] = assay: Inhibition of Shh signaling in mouse Shh-light2 cells at 20 uM by Gli-dependent firefly luciferase reporter gene assay; assay type: functional
[21] = Fraction unbound in rat plasma; assay type: ADME, cell-free
[22] = tested on: Potassium voltage-gated channel subfamily H member 2 (hERG), Homo sapiens; assay: Inhibition of human ERG at 10 uM
[23] = Fraction unbound in human plasma; assay type: ADME, cell-free
Protein smoothened [24] = biological target: T1, Protein smoothened; assay: Inhibition of Bodipy-labelled cyclopamine binding to Smo expressed in COS-1 cells at 4 uM in presence of 2% FBS after 4 to 6 hrs by FACS flow cytometric analysis; assay type: cell-based
Protein smoothened [25] = biological target: T1, Protein smoothened; assay: Inhibition of Bodipy-labelled cyclopamine binding to Smo expressed in COS-1 cells at 25 uM in presence of 20% NHS after 4 to 6 hrs by FACS flow cytometric analysis; assay type: cell-based

T1 sequence (Q99835 whole entry): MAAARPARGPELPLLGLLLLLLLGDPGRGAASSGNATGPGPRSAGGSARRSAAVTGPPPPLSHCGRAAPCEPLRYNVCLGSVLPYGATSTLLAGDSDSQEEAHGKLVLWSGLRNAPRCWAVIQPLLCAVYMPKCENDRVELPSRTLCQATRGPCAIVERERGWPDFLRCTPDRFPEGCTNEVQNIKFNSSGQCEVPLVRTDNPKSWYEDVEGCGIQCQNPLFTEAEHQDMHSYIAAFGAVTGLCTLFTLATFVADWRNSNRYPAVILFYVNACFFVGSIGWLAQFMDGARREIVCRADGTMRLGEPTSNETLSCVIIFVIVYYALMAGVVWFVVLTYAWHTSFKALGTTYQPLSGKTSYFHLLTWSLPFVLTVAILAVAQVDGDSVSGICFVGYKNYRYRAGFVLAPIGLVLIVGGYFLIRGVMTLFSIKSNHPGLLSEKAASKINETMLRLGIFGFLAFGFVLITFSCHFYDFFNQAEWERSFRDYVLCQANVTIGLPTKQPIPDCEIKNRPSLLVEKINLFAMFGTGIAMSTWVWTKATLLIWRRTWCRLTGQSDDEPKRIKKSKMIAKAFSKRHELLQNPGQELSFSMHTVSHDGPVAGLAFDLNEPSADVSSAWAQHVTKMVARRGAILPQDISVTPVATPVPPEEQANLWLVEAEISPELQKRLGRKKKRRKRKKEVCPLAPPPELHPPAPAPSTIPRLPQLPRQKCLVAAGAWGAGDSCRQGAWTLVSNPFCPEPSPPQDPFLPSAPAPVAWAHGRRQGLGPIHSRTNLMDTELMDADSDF
Sequence of CYP3A4 (P08684 whole entry): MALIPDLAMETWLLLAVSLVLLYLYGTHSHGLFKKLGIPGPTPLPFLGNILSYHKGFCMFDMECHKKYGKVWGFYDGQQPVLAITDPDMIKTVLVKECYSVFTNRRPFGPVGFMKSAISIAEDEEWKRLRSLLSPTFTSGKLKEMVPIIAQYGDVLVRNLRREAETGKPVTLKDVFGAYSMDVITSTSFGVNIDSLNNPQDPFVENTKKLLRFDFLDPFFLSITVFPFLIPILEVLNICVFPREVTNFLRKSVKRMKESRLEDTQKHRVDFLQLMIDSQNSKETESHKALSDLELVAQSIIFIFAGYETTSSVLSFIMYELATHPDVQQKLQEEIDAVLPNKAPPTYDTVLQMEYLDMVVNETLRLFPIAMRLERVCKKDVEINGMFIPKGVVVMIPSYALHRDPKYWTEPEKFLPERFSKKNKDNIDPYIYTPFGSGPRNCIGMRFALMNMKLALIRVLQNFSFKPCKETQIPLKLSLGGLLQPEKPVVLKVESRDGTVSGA
Sequence of CYP2C9 (P11712 whole entry): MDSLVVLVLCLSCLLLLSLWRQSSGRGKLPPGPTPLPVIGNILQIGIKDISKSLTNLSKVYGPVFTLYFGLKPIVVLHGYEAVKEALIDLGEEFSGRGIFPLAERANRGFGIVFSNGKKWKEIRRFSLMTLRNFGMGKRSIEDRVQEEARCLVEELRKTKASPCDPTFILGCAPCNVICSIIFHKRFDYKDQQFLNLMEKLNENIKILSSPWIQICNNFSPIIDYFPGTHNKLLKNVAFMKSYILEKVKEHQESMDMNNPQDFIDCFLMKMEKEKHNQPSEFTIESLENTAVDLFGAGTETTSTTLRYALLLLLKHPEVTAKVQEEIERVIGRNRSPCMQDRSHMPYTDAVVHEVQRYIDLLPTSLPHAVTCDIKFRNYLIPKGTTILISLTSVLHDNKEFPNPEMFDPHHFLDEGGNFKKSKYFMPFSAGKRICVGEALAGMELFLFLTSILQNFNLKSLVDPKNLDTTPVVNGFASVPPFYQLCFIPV
Sequence of Cytochrome P450 3A4 (P08684 whole entry): as the sequence (P08684 whole entry) above
Sequence of Cytochrome P450 2C9 (P11712 whole entry): as the sequence (P11712 whole entry) above
Sequence of Cytochrome P450 2D6 (P10635 whole entry): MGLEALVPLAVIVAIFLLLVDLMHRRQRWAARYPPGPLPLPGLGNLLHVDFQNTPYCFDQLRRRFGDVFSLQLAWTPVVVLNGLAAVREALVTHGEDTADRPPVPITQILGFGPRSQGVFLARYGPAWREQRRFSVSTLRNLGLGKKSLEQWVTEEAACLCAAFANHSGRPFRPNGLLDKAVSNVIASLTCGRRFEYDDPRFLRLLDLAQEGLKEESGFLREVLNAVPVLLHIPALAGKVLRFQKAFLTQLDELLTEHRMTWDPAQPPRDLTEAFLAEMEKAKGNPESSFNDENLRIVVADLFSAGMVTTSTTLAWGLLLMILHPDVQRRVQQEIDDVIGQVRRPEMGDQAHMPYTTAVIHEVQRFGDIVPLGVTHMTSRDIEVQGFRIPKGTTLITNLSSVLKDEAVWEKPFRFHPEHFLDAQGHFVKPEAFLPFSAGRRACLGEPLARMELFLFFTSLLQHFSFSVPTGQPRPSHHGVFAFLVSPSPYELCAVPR

In the case of `O=C(Nc1ccccc1Cl)N1CCN(c2nc(-c3ccc4ccccc4n3)no2)CC1`, the IC50 (Cytochrome P450 2D6) is reported as over 25 µM, the IC50 (Cytochrome P450 2C9) is reported as over 25 µM and the IC50 [1] is reported as 12 µM. It also gave a logD [2] of 2.95, an IC50 (Shh Light II [3]) of 0.14 µM and an IC50 (Protein smoothened [4]) of 0.17 µM. For the same molecule, the IC50 (Protein smoothened [5]) was 0.7 µM and the IC50 (Cytochrome P450 3A4) was over 25 µM.
In the case of `O=C(NC1CCC(F)(F)CC1)N1CCN(c2nc(-c3ccc4ccccc4n3)no2)CC1`, the clearance [6] is reported as 32 mL/min/kg, the half-life [7] is reported as 1.1 h and the microsomal CLint [8] is reported as 8 µL/min/mg. The clearance [9] was 20 mL/min/kg, the Activity [10] was “Not Active” and the “inhibition (INH)” value [11] was “Not Active”. It also gave a logD [2] of 2.67, an IC50 (Shh Light II [3]) of 0.005 µM and a half-life [12] of 1.3 h. The IC50 (Protein smoothened [5]) was 0.039 µM and the microsomal CLint [13] was 61 µL/min/mg.
`Cc1cccnc1-c1noc(C2CCN(C(=O)Nc3ccccc3Cl)CC2)n1` gave an inhibition (Protein smoothened [14]) of 63%.
`COc1ccccc1NC(=O)N1CCC(c2nc(-c3ccc4ccccc4n3)no2)C1` (stereo not drawn) gave an inhibition at 10 µM (Shh Light II [15]) of 15% and an inhibition (Protein smoothened [16]) of 38%.
In the case of `O=C(NC1CCCCC1)N1CCN(c2nc(-c3ccc4ccccc4n3)no2)CC1`, the clearance [6] is reported as 54 mL/min/kg, the half-life [7] is reported as 1.4 h and the microsomal CLint [8] is reported as 60 µL/min/mg. For the same molecule, the bioavailability [17] was 24%, the clearance [9] was 16 mL/min/kg and the Activity [10] was “Not Active”. The IC50 [1] was over 30 µM, the “inhibition (INH)” value [11] was “Not Active” and the logD [2] was 2.76. It also gave an IC50 (Shh Light II [3]) of 0.053 µM, a half-life [12] of 1.1 h and a microsomal CLint [18] of 54 µL/min/mg. The IC50 (Protein smoothened [4]) was 0.045 µM, the IC50 (Protein smoothened [5]) was 0.18 µM and the microsomal CLint [13] was 189 µL/min/mg.
Work on `COc1ccccc1NC(=O)N1CCC(c2nc(-c3ncccc3C)no2)CC1` yielded an inhibition (Protein smoothened [19]) of 51%.
`Cn1c(-c2noc(C3CCN(C(=O)Nc4ccccc4Cl)CC3)n2)nc2ccccc21` gave a logD [2] of 2.85, an IC50 (Shh Light II [3]) of 0.43 µM and an inhibition at 10 µM (CYP2C9) of 44%. For the same molecule, the IC50 (Protein smoothened [4]) was 1 µM, the IC50 (Protein smoothened [5]) was 4.5 µM and the microsomal CLint [13] was 174 µL/min/mg. For the same molecule, the inhibition at 10 µM (CYP3A4) was 35%.
In the case of `COc1ccccc1NC(=O)N1CCC(c2nnc(-c3ccc4ccccc4n3)o2)CC1`, the IC50 (Protein smoothened [4]) is reported as 4.7 µM and the inhibition at 20 µM (Shh Light II [20]) is reported as 57%.
Molecule `O=C(Nc1ccccc1Cl)N1CCC(c2nc(-c3ccc4ccccc4n3)no2)CC1` has a clearance [6] of 11 mL/min/kg, a fraction unbound [21] of 0.01 and a microsomal CLint [8] of 45 µL/min/mg. For the same molecule, the bioavailability [17] was 38%, the inhibition [22] was 62% and the logD [2] was 4.25. It also gave an IC50 (Shh Light II [3]) of 0.51 µM, a microsomal CLint [18] of 65 µL/min/mg and an inhibition at 10 µM (CYP2C9) of 62%. The IC50 (Protein smoothened [4]) was 0.38 µM, the fraction unbound [23] was 0.005 and the IC50 (Protein smoothened [5]) was 3.5 µM. For the same molecule, the microsomal CLint [13] was over 200 µL/min/mg and the inhibition at 10 µM (CYP3A4) was 58%.
`COc1ccc(NC(=O)N2CCC(c3nc(-c4ccc5ccccc5n4)no3)CC2)cc1` showed an IC50 (Protein smoothened [4]) of over 2.5 µM and an inhibition (Protein smoothened [24]) of 68%.
With `COc1ccccc1NC(=O)N1CC(c2nc(-c3ccc4ccccc4n3)no2)C1` the inhibition at 10 µM (Shh Light II [15]) was 28% and the inhibition (Protein smoothened [16]) was 39%.
Work on `O=C(NC1CCC(O)CC1)N1CCC(c2nc(-c3ccc4ccccc4n3)no2)CC1` (stereo not drawn) yielded an inhibition (Protein smoothened [25]) of 65%, an IC50 (Shh Light II [3]) of 2.7 µM and an IC50 (Protein smoothened [4]) of 2.5 µM.
